# Test results published in ChEMBL document CHEMBL3826971 (Bioorg Med Chem Lett, 2016).
# Experiment: Acute toxicity in ip dosed mouse measured after 72 hrs
# Format: organism-based
# Settings: in vivo
row,Structure (SMILES),LD50 at 72 h
1,CN(C)C(=O)Oc1cccc([N+](C)(C)C)c1.COS(=O)(=O)[O-] [NEOSTIGMINE METHYLSULFATE],0.51 mg/kg
2,CN(C)C(=O)Oc1ccc[n+](C)c1.[Br-] [PYRIDOSTIGMINE BROMIDE],3.3 mg/kg
